Where “and” joins values, the source holds several entries; their conditions need not be identical. Identical values can stand only once. Like-named read-outs stand apart in the source and are kept apart here.
Assays:
[1] = target: T1, M1 muscarinic receptor (Homo sapiens, UniProt P11229); format: binding
T1 construct: expressed in transfected cells; host or cells: CHO cells
T1 sequence (P11229 1-460): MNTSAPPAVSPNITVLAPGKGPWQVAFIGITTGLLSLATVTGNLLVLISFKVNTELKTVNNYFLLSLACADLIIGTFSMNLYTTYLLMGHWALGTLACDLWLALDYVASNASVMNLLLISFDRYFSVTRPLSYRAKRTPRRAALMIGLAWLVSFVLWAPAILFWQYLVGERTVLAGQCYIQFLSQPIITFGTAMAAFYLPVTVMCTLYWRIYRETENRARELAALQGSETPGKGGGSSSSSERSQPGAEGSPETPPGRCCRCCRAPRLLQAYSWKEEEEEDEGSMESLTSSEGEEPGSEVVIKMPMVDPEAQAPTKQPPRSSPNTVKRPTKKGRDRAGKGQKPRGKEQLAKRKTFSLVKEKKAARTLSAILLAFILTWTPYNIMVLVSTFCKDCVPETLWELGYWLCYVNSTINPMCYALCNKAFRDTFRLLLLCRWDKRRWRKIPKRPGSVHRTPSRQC
Experimental: (§1) CHO cells were grown to confluence in 75 cm^2 flasks in Dulbecco’s modified Eagle’s medium (DMEM) supplemented with 10% fetal bovine serum. Two million cells were subcultured in 100 mm Petri dishes. The medium was supplemented with 5 mM sodium butyrate for the last 24 h of cultivation to increase receptor expression. Cells were washed with phosphate-buffered saline and manually harvested on day 5 after subculture and centrifuged for 3 min at 250 × g. The pellet was suspended in 10 ml of ice-cold homogenization medium (100 mM NaCl, 20 mM Na-HEPES, 10 mM EDTA, pH = 7.4) and homogenized on ice by two 30 s strokes using a Polytron homogenizer (Ultra-Turrax; Janke & Kunkel GmbH & Co. KG, IKA-Labortechnik, Staufen, Germany) with a 30-s pause between strokes. Cell homogenates were centrifuged for 5 min at 1,000 × g. The supernatant was collected and centrifuged for 30 min at 30,000 × g. Pellets were suspended in the washing medium (100 mM, 10 mM MgCl2, 20 mM Na-HEPES, pH = 7.4), left for 30 min at 4 °C, and then centrifuged again for 30 min at 30,000 × g. Resulting membrane pellets were kept at -80 °C until assayed.
All radioligand binding experiments were optimized and carried out according to general guidelines. […] Agonist binding was determined in competition experiments with 1 nM [^3H]NMS. Nonspecific binding was determined in the presence of 10 μM atropine. Incubation was terminated by filtration through Whatman GF/C glass fibre filters (Whatman) using a Brandel harvester (Brandel, USA). […] The filters were cooled and counted in a Wallac Microbeta scintillation counter (Wallac, Finland).
Data from experiments were processed in Libre Office and then analysed and plotted using program Grace (https://plasma-gate.weizmann.ac.il/Grace). […] Inhibition constant KI was calculated as:28 KI=IC50/1+D/KD where [D] is the concentration of radioligand used and KD is its equilibrium dissociation constant.
Interaction between tracer ([^3H]NMS) and allosteric modulator:29 y=D+KD/D+KDKB+x/KB+xα where y is specific radioligand binding at concentration x of the allosteric modulator as per cent of binding in the absence of allosteric modulator. Where [D] and KD are concentration and equilibrium dissociation constant of the tracer ([^3H]NMS). The equilibrium dissociation constant of the allosteric modulator KB and factor of binding cooperativity α are obtained by fitting of Eq. (29) to data.
Interaction between tracer ([^3H]NMS) and allosteric modulator in the presence of an agonist at fixed concentration:30 y=D+KD/D+KDAKB+Bα2+KAKB+B/KAKB+Bα1 where y is specific radioligand binding at concentration x of the allosteric modulator as per cent of binding in the absence of allosteric modulator. Where [D] and KD are concentration and equilibrium dissociation constant of the tracer ([^3H]NMS), [A] and KA are concentration and equilibrium dissociation constant of the agonist. Parameters KB and α1 obtained by fitting of Eq. (29) to binding data in the absence of the agonist.31 Concentration-responsecurvey=basal+EMAX′-basal∗x^nH/x^nH+EC50nH where y is response normalized to basal activity in the absence of allosteric ligand at concentration x, E'MAX is the apparent maximal response, EC50 is concentration causing half-maximal effect, and nH is Hill coefficient.

[2] = target: T1, M1 muscarinic receptor; format: cell-based; conditions: for τA / EMAX: Table S3B, global fit; for τA: EMAX as shared parameter; for EMAX: EMAX estimated as shared parameter of all 4 curves; for α (factor of binding cooperativity) / β (factor of operational cooperativity): functional, global fit of Eq. (14)
Experimental: as §1
Accumulation of inositol phosphates (IPX) was assayed in cells in suspension. IPX was determined after separation on ion-exchange columns (Dowex 1X8-200, Sigma, USA). Cells were harvested by mild trypsinization and resuspended in KHB and centrifuged 250 g for 3 min. Cells were resuspended in KHB supplemented with 500 nM [^3H]myo-inositol (ARC, USA) and incubated at 37 °C for 1 h. Then they were washed once with an excess of KHB, resuspended in KHB containing 10 mM LiCl, and incubated for 1 h at 37 °C in the presence of indicated concentrations of agonists and/or allosteric modulator. Incubation was terminated by the addition of 0.5 ml of stopping solution (chloroform: methanol: HCl; 2: 1: 0.1) and placed in 4 °C for 1 h. An aliquot (0.6 ml) of the upper (aqueous) phase was taken and loaded onto ion-exchange columns. Columns were washed with 10 ml of deionized water and 20 ml of 60 mM ammonium formate/5 mM sodium borate solution. IPX were collectively eluted from columns by 4 ml of 1 M ammonium formate-0.1 M/formic acid buffer.
Where [D] and KD are concentration and equilibrium dissociation constant of the tracer ([^3H]NMS), [A] and KA are concentration and equilibrium dissociation constant of the agonist. Parameters KB and α1 obtained by fitting of Eq. (29) to binding data in the absence of the agonist.31 Concentration-responsecurvey=basal+EMAX′-basal∗x^nH/x^nH+EC50nH where y is response normalized to basal activity in the absence of allosteric ligand at concentration x, E'MAX is the apparent maximal response, EC50 is concentration causing half-maximal effect, and nH is Hill coefficient.

Structure (SMILES): Cc1ccccc1CN1CCC(N2CCC(n3c(=O)[nH]c4ccccc43)CC2)CC1 [TBPB, 3-[1-[1-[(2-methylphenyl)methyl]piperidin-4-yl]piperidin-4-yl]-1H-benzimidazol-2-one]
- αNMS (factor of binding cooperativity with NMS) ([1]; Eq. (29)): 0.002 ± 0.001
- inhibition of [3H]NMS binding ([1]; allosteric ligand alone): completely inhibited
- αcarbachol (factor of binding cooperativity with carbachol) ([1]; binding experiments, Eq. (30)): 0.7 ± 0.3
- αiperoxo (factor of binding cooperativity with iperoxo) ([1]; binding experiments, Eq. (30)): 0.8 ± 0.4
- decrease in affinity of [3H]NMS ([1]; fit of Eq. (29), TBPB estimate with high uncertainty): 500 fold
- binding cooperativity with carbachol and iperoxo ([1]; fit of Eq. (30), high degree of uncertainty): slightly negative
- E’MAX [2]: 56.0 ± 2.2 and 57.8 ± 3.3 and 57.9 ± 1.4
- E′MAX of response compared with carbachol [2]: close to E′MAX of full agonist carbachol
- basal [2]: 52.7 and 53.2 and 51.3
- effect on EC′50 of carbachol and iperoxo [2]: increased EC′50 values
- nH [2]: 1.15 ± 0.18 and 1.18 ± 0.20 and 0.85 ± 0.15
- binding cooperativity α in functional experiments compared with binding experiments ([2]; Figs. 14 and 15 vs Fig. 12): about twice stronger
- τA [2]: 1.26 ± 334
- EMAX [2]: 98 ± 53
- effect on E′MAX of carbachol and iperoxo ([2]; fixed concentrations of allosteric ligand): decreased E′MAX values
- α (factor of binding cooperativity) ([2]; with carbachol): 0.48 ± 0.05
- β (factor of operational cooperativity) ([2]; with carbachol): 0.80 ± 0.05
- α (factor of binding cooperativity) ([2]; with iperoxo): 0.51 ± 0.08
- β (factor of operational cooperativity) ([2]; with iperoxo): 0.78 ± 0.08
- E’MAX ([2]; iperoxo + 1 µM TBPB): 59.7 ± 3.9 fold-over basal
- basal ([2]; iperoxo + 1 µM TBPB): 51.3 fold-over basal
- nH ([2]; iperoxo + 1 µM TBPB): 1.18 ± 0.20
- E’MAX ([2]; iperoxo + 3 µM TBPB): 58.0 ± 4.8 fold-over basal
- basal ([2]; iperoxo + 3 µM TBPB): 52.7 fold-over basal
- nH ([2]; iperoxo + 3 µM TBPB): 0.82 ± 0.20
- E’MAX ([2]; iperoxo + 10 µM TBPB): 57.6 ± 2.9 fold-over basal
- basal ([2]; iperoxo + 10 µM TBPB): 53.2 fold-over basal
- nH ([2]; iperoxo + 10 µM TBPB): 1.19 ± 0.22
- E’MAX (apparent maximal response) ([2]; ligand alone, Eq. (31)): 54.4 ± 0.9 fold-over basal
- nH (slope) ([2]; ligand alone, Eq. (31)): 1.01 ± 0.08
- operational cooperativity β ([2]; with both carbachol and iperoxo, indicated by E′MAX change): < 1

Structure (SMILES): C[N+](C)(C)CC#CCOC1=NOCC1 [iperoxo]
- flow (fraction of low-affinity sites) ([1]; Eq. (27)): 51 ± 5%
- high-affinity binding (candidate KA) ([1]; competition with [3H]NMS, high-affinity sites): 200 pM
- pIC50high ([1]; high-affinity sites, 1 nM [3H]NMS, Eq. (27)): 8.99 ± 0.05
- pKIhigh ([1]; high-affinity sites, 1 nM [3H]NMS, calculated from IC50 by Eq. (28)): 9.70 ± 0.05
- pIC50low ([1]; low-affinity sites, 1 nM [3H]NMS, Eq. (27)): 5.96 ± 0.04
- pKIlow ([1]; low-affinity sites, 1 nM [3H]NMS, calculated from IC50 by Eq. (28)): 6.66 ± 0.04
- τA [2]: 1.97 ± 708
- EMAX [2]: 98 ± 53
- basal ([2]; agonist alone): 1 fold-over basal
- efficacy ranking ([2]; functional experiments): greater efficacy than carbachol
- E’MAX (apparent maximal response) ([2]; ligand alone, Eq. (31)): 64.7 ± 0.5 fold-over basal
- nH (slope) ([2]; ligand alone, Eq. (31)): 1.04 ± 0.02
- pEC50 ([2]; ligand alone, Eq. (31)): 9.42 ± 0.01
- operational efficacy τ (τA / τB) ([2]; ligand alone, Eq. […]): 1.86 ± 0.04
- pKA / pKB (functional) ([2]; ligand alone, Eq. […]): 8.96 ± 0.02
